Source: ChEMBL document CHEMBL1154287, “Phenylaminopyrimidines as inhibitors of Janus kinases (JAKs)” (Bioorg Med Chem Lett, 2009)

Columns and labels:
[1] = target: Tyrosine-protein kinase JAK2 (Homo sapiens, UniProt O60674)
Description: Inhibition of GST-tagged JAK2 kinase

BaF3 [2] = assay: cells; details: Mus musculus, BaF3, 72 h
Description: Antiproliferative activity against mouse BAF3 cells expressing TEL-JAK3 kinase after 72 hrs by alamar blue assay

[3] = target: T1, Tyrosine-protein kinase JAK3 (Homo sapiens, UniProt P52333)
T1 sequence (P52333 whole entry): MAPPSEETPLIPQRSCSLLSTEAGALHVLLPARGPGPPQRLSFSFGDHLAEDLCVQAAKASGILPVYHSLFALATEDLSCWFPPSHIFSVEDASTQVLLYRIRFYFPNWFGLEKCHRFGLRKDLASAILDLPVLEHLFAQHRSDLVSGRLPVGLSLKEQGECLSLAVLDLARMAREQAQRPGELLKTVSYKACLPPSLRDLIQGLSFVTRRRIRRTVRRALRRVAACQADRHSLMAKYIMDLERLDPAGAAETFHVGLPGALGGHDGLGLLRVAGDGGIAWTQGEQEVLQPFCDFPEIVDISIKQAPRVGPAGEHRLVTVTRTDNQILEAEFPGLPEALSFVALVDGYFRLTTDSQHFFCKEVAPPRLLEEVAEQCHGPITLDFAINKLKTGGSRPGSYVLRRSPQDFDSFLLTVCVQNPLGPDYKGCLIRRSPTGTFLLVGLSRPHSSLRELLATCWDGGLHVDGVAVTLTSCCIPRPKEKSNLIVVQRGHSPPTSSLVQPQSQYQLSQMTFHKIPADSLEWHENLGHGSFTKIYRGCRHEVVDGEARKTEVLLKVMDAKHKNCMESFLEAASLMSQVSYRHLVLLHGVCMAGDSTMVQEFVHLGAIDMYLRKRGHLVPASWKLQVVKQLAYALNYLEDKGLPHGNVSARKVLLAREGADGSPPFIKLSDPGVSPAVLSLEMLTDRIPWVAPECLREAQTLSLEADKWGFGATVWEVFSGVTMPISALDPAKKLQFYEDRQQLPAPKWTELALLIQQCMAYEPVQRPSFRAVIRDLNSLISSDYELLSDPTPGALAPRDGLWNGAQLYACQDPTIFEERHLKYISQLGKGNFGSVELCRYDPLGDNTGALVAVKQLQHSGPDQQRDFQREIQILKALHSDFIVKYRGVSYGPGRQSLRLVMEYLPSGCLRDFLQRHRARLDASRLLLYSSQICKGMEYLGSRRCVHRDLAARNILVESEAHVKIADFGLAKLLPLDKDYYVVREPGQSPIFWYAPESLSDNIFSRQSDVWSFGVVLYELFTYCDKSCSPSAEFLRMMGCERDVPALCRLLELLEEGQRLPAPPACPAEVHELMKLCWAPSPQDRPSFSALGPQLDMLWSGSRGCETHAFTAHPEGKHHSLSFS
Description: Inhibition of GST-tagged JAK3 kinase

cells = details: Mus musculus, CTLL-2, 72 h
Description: Antiproliferative activity against IL-2-stimulated mouse CTLL-2 cells expressing JAK1/JAK3 after 72 hrs by alamar blue assay

BaF3 [4] = assay: cells; details: Mus musculus, BaF3, 72 h; remark: listed apart in the source
Description: Antiproliferative activity against mouse BAF3 cells expressing TEL-JAK2 kinase after 72 hrs by alamar blue assay

in vitro [5] = details: human, Caco-2
Description: Apparent permeability from apical to basolateral side in human Caco-2 cells

in vitro [6] = details: human, Caco-2; remark: listed apart in the source
Description: Ratio of permeability from apical to basolateral side over basolateral to apical side in human Caco-2 cells

[7] = Apparent permeability from basolateral to apical side in human Caco-2 cells; format: ADME, cell-based
[8] = Apparent half life in Sprague-Dawley rat at 18 mg/kg, po; format: ADME, organism-based; set-up: dose 18 mg/kg, route oral; details: in vivo
[9] = Blood clearance in Sprague-Dawley rat at 18 mg/kg, po; format: ADME, organism-based; set-up: dose 18 mg/kg, route oral
[10] = Antiproliferative activity against human SET2 cells expressing JAK2 V617F mutant kinase after 72 hrs by alamar blue assay; format: functional, cell-based; details: SET-2, 72 h
K562 = assay: cells; details: Homo sapiens, K562, 72 h
Description: Antiproliferative activity against human K562 cells after 72 hrs by alamar blue assay

BaF3 [11] = assay: Antiproliferative activity against mouse BAF3 cells expressing wild type JAK2 kinase after 72 hrs by alamar blue assay in presence of IL-3; format: functional, cell-based; details: BaF3, 72 h
[12] = Tmax in Sprague-Dawley rat at 18 mg/kg, po; format: ADME, organism-based; set-up: dose 18 mg/kg, route oral; details: in vivo
[13] = Cmax in Sprague-Dawley rat at 18 mg/kg, po; format: ADME, organism-based; set-up: dose 18 mg/kg, route oral; details: in vivo

Sequence of Tyrosine-protein kinase JAK2 (O60674 whole entry): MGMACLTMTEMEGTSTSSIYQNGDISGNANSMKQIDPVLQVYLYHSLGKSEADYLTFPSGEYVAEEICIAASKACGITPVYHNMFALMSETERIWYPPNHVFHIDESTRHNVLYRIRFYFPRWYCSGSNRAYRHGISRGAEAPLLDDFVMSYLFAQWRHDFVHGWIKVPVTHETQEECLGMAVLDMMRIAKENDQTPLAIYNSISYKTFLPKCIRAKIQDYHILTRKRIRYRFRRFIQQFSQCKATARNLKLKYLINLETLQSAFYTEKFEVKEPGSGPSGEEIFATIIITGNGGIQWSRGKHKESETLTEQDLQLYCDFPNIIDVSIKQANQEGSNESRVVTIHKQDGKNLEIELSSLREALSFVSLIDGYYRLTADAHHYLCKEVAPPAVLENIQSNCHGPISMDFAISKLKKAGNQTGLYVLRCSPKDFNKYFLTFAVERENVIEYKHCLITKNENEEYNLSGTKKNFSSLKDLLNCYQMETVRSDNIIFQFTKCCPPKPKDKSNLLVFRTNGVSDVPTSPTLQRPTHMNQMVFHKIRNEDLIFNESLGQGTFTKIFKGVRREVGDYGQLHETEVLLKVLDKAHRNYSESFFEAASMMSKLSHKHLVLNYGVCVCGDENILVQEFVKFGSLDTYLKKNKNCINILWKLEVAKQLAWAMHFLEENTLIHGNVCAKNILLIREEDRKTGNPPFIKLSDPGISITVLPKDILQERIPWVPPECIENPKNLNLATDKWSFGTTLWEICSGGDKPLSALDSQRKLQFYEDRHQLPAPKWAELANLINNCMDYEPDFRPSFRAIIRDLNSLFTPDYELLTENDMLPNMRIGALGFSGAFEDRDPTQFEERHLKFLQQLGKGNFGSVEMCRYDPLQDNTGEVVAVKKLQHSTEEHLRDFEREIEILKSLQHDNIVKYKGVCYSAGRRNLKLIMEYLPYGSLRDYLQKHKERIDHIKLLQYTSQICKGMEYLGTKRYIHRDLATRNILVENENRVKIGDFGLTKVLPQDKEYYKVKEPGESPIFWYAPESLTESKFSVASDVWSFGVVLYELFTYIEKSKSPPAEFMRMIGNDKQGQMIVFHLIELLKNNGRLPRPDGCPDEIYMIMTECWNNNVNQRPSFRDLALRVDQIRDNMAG

IC50 [1] [nM] | IC50 (BaF3 [2]) [nM] | IC50 [3] [nM] | IC50 (cells) [nM] | IC50 (BaF3 [4]) [nM] | Compound | also measured
14 | 3140 | 960 | 5180 | 941 | CN1CCN(Cc2cccc(Nc3nccc(-c4ccc(NS(C)(=O)=O)cc4)n3)c2)CC1 | 
 | 1710 | 2020 | 3990 | 1240 | N#CCNC(=O)c1ccc(-c2ccnc(Nc3ccc(N4CCOCC4)c(C(F)(F)F)c3)n2)cc1 | 
 |  |  |  | > 20000 | N#Cc1ccc(-c2ccnc(Nc3ccc(N4CCOCC4)cc3)n2)cc1 | 
11 | 730 | 538 | 735 | 580 | CS(=O)(=O)Nc1ccc(-c2ccnc(Nc3ccc(CN4CCCCC4)cc3)n2)cc1 | 
16 |  |  |  | 5620 | COc1cc(-c2ccnc(Nc3ccc(N4CCOCC4)cc3)n2)ccc1N | 
549 | 4250 | 3910 |  | 3720 | CC(C)(C#N)NC(=O)c1ccc(-c2ccnc(Nc3ccc(N4CCOCC4)cc3)n2)cc1 | 
18 | 3430 | > 1000 | 1550 | 1000 | CN1CCN(Cc2ccc(Nc3nccc(-c4ccc(NS(C)(=O)=O)cc4)n3)cc2)CC1 | 
322 |  |  |  | 8520 | Nc1cccc(-c2ccnc(Nc3ccc(N4CCOCC4)cc3)n2)c1 | 
 |  |  |  |  | CC(C)NCC(O)COc1cccc2ccccc12 (configuration not stated) [PROPRANOLOL] | Papp A→B (in vitro [5]): 38.7 ×10⁻⁶ cm/s; efflux ratio (in vitro [6]): 1.3; Papp B→A [7]: 48.8 ×10⁻⁶ cm/s
83 |  |  |  |  | NS(=O)(=O)c1ccc(-c2ccnc(Nc3ccc(N4CCOCC4)cc3)n2)cc1 | 
16 | 2200 | 1620 | 5610 | 892 | CS(=O)(=O)Nc1ccc(-c2ccnc(Nc3ccc(CN4CCC(O)CC4)cc3)n2)cc1 | 
8 | 5960 | 85 | 240 | 433 | Cc1cnc(Nc2ccc(N3CCOCC3)cc2)nc1-c1ccc(C(=O)NCC#N)cc1 | 
 | 2050 | 192 | 1830 | 525 | CN1CCN(c2ccc(Nc3nccc(-c4ccc(C(=O)NCC#N)cc4)n3)cc2)CC1 | 
 | > 20000 |  | 6160 | 8500 | COc1cnc(Nc2ccc(N3CCOCC3)cc2)nc1-c1ccc(C(=O)NCC#N)cc1 | 
69 | 6240 |  | 1510 | 2200 | N#CCNC(=O)c1ccc(-c2ccnc(Nc3ccc(N4CCSCC4)cc3)n2)cc1 | 
81 |  |  |  | 3730 | Cc1nccn1Cc1ccc(-c2ccnc(Nc3ccc(N4CCOCC4)cc3)n2)cc1 | 
33 |  |  |  | 7130 | c1cc(-c2ccc3[nH]ccc3c2)nc(Nc2ccc(N3CCOCC3)cc2)n1 | 
 |  |  |  |  | OC[C@@H](O)[C@@H](O)[C@H](O)[C@H](O)CO [MANNITOL] | Papp A→B (in vitro [5]): 0.7 ×10⁻⁶ cm/s; efflux ratio (in vitro [6]): 1.5; Papp B→A [7]: 1.1 ×10⁻⁶ cm/s
6 | 240 | 110 | 569 | 234 | CS(=O)(=O)Nc1ccc(-c2ccnc(Nc3cccc(CN4CCCC4)c3)n2)cc1 | 
8 | 1730 | 930 | 2660 | 812 | CS(=O)(=O)Nc1ccc(-c2ccnc(Nc3cccc(CN4CCOCC4)c3)n2)cc1 | 
9 | 1940 | > 1000 | 1670 | 896 | CS(=O)(=O)Nc1ccc(-c2ccnc(Nc3ccc(CN4CCOCC4)cc3)n2)cc1 | 
 | 7450 | 1880 | 3770 | 2560 | N#CCNC(=O)c1ccc(-c2ccnc(Nc3cccc(N4CCOCC4)c3)n2)cc1 | 

IC50 [1] [nM] | IC50 (BaF3 [2]) [nM] | IC50 [3] [nM] | IC50 (cells) [nM] | IC50 (BaF3 [4]) [nM] | Compound | also measured
303 | > 20000 | 1760 | 18900 | 10300 | N#CCC(=O)Nc1cccc(-c2ccnc(Nc3ccc(N4CCOCC4)cc3)n2)c1 | 
88 |  |  |  | 3520 | Cc1cc(-c2ccnc(Nc3ccc(N4CCOCC4)cc3)n2)cc(C)c1O | 
132 | > 20000 | > 1000 | 8030 | 9820 | N#CCNCc1cccc(-c2ccnc(Nc3ccc(N4CCOCC4)cc3)n2)c1 | 
30 | 275 | 9 | 245 | 205 | COc1cc(-c2ccnc(Nc3ccc(N4CCOCC4)cc3)n2)ccc1C(=O)NCC#N | 
12 | 1940 | 636 | 6760 | 771 | CS(=O)(=O)Nc1ccc(-c2ccnc(Nc3cccc(CN4CCC(O)CC4)c3)n2)cc1 | 
4 | 3940 | 351 | 489 | 396 | CS(=O)(=O)Nc1ccc(-c2ccnc(Nc3ccc(N4CCOCC4)cc3)n2)cc1 | 
3 | 2550 | 62 | < 160 | 380 | COc1cc(-c2ccnc(Nc3ccc(N4CCOCC4)cc3)n2)ccc1O | 
67 |  |  |  | 3110 | CC(=O)Nc1ccc(-c2ccnc(Nc3ccc(N4CCOCC4)cc3)n2)cc1 | 
326 |  |  |  | 5560 | NC(=O)c1ccc(-c2ccnc(Nc3ccc(N4CCOCC4)cc3)n2)cc1 | 
116 | 3280 | 274 | 1260 | 1140 | N#CCNC(=O)c1ccc(-c2ccnc(Nc3ccc(N4CCOCC4)c(F)c3)n2)cc1 | 
166 | 1100 | 362 | 3680 | 840 | CCN(CC)CCCOc1ccc(Nc2nccc(-c3ccc(C(=O)NCC#N)cc3)n2)cc1 | 
65 | 7570 | > 1000 | 2040 | 2630 | Cc1cc(-c2ccnc(Nc3ccc(N4CCOCC4)cc3)n2)ccc1C(=O)NCC#N | 
163 | 9500 | 1450 | 5070 | 2800 | N#CCNC(=O)c1ccc(-c2ccnc(Nc3ccc(CN4CCOCC4)cc3)n2)cc1 | 
6 | 6550 | 149 | 1490 | 933 | CS(=O)(=O)Nc1ccc(-c2ccnc(Nc3ccc(N4CCC(O)CC4)cc3)n2)cc1 | 
 | 2420 |  | 1250 | 798 | N#CCNC(=O)c1ccc(-c2ccnc(Nc3ccc(N4CCOCC4)cc3)n2)cc1 [MOMELOTINIB] | half-life [8]: 2.4 h; CL/F [9]: 6.3 mL/min/kg; IC50 [10]: 232 nM; IC50 (K562): > 20000 nM; Papp A→B (in vitro [5]): 30.4 ×10⁻⁶ cm/s; IC50 (BaF3 [11]): 1430 nM; Tmax [12]: 4 h; Papp B→A [7]: 27.3 ×10⁻⁶ cm/s; Cmax [13]: 40.4 µM
47 | 1230 | 152 | 1850 | 423 | CCN1CCN(Cc2ccc(Nc3nccc(-c4ccc(C(=O)NCC#N)cc4)n3)cc2)CC1 | 
298 | 16900 | 1420 | 4170 | 6340 | CN(CC#N)C(=O)c1ccc(-c2ccnc(Nc3ccc(N4CCOCC4)cc3)n2)cc1 | 
 | 4200 |  | 915 | 720 | N#CCC(=O)Nc1ccc(-c2ccnc(Nc3ccc(N4CCOCC4)cc3)n2)cc1 | 
52 | 9980 |  | 7900 | 2040 | N#CCNC(=O)c1ccc(-c2ccnc(Nc3ccc(CN4CCS(=O)(=O)CC4)cc3)n2)cc1 | 
202 |  |  |  | 5220 | O=C(NCc1ccco1)c1ccc(-c2ccnc(Nc3ccc(N4CCOCC4)cc3)n2)cc1 | 
467 |  |  |  |  | c1ccc(-c2ccnc(Nc3ccc(N4CCOCC4)cc3)n2)cc1 | 
545 | > 20000 | > 5000 | > 20000 | > 20000 | N#CCNC(=O)c1cccc(-c2ccnc(Nc3ccc(N4CCOCC4)cc3)n2)c1 | 
